In ChEMBL document CHEMBL5244275, “Geminal Diheteroatomic Motifs: Some Applications of Acetals, Ketals, and Their Sulfur and Nitrogen Homologues in Medicinal Chemistry and Drug Design” (J Med Chem, 2021):
In brackets after ≈: the same amount, converted by molar mass. Blank lines part the entries; values can stand above or below the compound they belong to.

What was measured:
[1] = Half-life in human plasma; type: ADME
[2] = Stability of the compound assessed as compound hydrolysis by measuring rate constant by NMR spectroscopic analysis; type: physicochemical
[3] = Stability of the compound in 1M HCL buffer assessed as drug degradation by measuring rate constant by FRET-based assay; type: physicochemical
Substance-P receptor = Substance-P receptor (Homo sapiens, UniProt P25103); experiment: Displacement of [125I]-labeled SP from human NK-1 receptor expressed in CHO cells; type: cell-based
Chain of Substance-P receptor (P25103 whole entry): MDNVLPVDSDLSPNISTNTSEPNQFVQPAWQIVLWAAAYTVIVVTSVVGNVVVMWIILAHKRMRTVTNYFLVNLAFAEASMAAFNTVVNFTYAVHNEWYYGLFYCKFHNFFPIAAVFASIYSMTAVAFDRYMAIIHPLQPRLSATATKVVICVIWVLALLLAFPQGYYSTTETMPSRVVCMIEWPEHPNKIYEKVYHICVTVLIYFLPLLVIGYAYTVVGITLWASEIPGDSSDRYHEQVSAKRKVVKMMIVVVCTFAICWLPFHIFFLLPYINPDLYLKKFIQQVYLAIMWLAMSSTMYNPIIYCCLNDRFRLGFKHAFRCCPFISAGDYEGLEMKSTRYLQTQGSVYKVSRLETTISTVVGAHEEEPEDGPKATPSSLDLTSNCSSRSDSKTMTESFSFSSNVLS

[4] = Stability of the compound in HCL solution assessed as compound hydrolysis by measuring relative rate constant by NMR analysis; type: physicochemical; conditions: buffer
[5] = Stability of the compound in 0.01 N HCL at pH 2.0 assessed as half-life; type: physicochemical
[6] = Oral bioavailability in mouse; type: ADME, organism-based; conditions: in vivo
[7] = Oral bioavailability in dog; type: ADME, organism-based, Canis lupus familiaris; conditions: in vivo
[8] = Oral bioavailability in rat; type: ADME, organism-based; conditions: in vivo
[9] = Oral bioavailability in human; type: ADME, organism-based; conditions: in vivo
[10] = Chemical stability of the compound assessed as acid-catalyzed hydrolysis by measuring rate constant; type: physicochemical
PC-6 = experiment: Growth inhibition of human PC-6 cells; type: functional
[11] = Growth inhibition of human PC-12 cells; type: functional, PC12

Compound: CC(Cl)C1(C)CCC(C)(C)CC1 (stereo not given)
K [2]: 0

Compound: COc1cc(/N=N/c2ccc([N+](=O)[O-])cc2)c(OC)cc1/N=N/c1ccc(N(C)CCCC(=O)NCCSC2CC(=O)N(CC3OCC(C(=O)NCCCNC(=O)c4ccc(C(=O)[O-])c(-c5c6ccc(=[N+](C)C)cc-6oc6cc(N(C)C)ccc56)c4)CO3)C2=O)cc1 (stereo not given)
K [3]: 3.8 10^-7/s

Compound: C=CC1(C)OCCO1
K [2]: 8.8 10^-4No_unit

Compound: C1CCC2(CC1)OCCCCO2
K [4]: 1 10^8No_unit

Compound: CCOC1(OCC)CCCCC1
K [4]: 1.3 10^10No_unit

Compound: C[C@H]1[C@@H](CCCC(=O)O)O[C@@H]2O[C@@]3(C)CC[C@H]4[C@H](C)CC[C@@H]1[C@@]24OO3
half-life [5]: 165 h

Compound: C=CC1(C)CCC(C)(C)CC1
K [2]: 7.33 10^-4No_unit

Compound: FC1CCN(CCc2ccc(C3CCC4(CC3)OOC3(OO4)C4CC5CC(C4)CC3C5)cc2)CC1 (stereo not given)
bioavailability [6]: 82% | bioavailability [7]: 40% | bioavailability [8]: 62%

Compound: CC(Cl)C1(C)CCCCC1 (stereo not given)
K [2]: 2.25 10^-6No_unit

Compound: CC(Cl)C1(C)OCCO1 (stereo not given)
K [2]: 0

Compound: c1ccc2c(c1)OC1(CCCCC1)O2
K [4]: 1

Compound: c1cc([C@H]2CC[C@]3(CC2)OOC2(O3)C3CC4CC(C3)CC2C4)ccc1OCCN1CCOCC1 (stereo not given in full)
bioavailability [8]: 76%

Compound: COC1(C)OCCCO1
K [4]: 2.4 10^9No_unit

Compound: CC(=O)O[C@@]12CO[C@@H]1CC[C@@]1(C)[C@H]3OC(C)(C)O[C@@H]3C3=C(C)[C@@H](OC(=O)[C@H](O)[C@@H](NC(=O)OC(C)(C)C)c4ccccn4)C[C@@](O)([C@@H](OC(=O)c4ccccc4)[C@@H]12)C3(C)C
GI50 (PC-6): 0.33 ng/mL (≈ 0.395 nM) | GI50 [11]: 0.15 ng/mL (≈ 0.18 nM)

Compound: CC(=O)O[C@@]12CO[C@@H]1CC[C@@]1(C)[C@@H]3O[C@H](CN(C)C)O[C@@H]3C3=C(C)[C@@H](OC(=O)[C@H](O)[C@@H](NC(=O)OC(C)(C)C)c4ncccc4F)C[C@@](O)([C@@H](OC(=O)c4ccccc4)[C@@H]12)C3(C)C [TESETAXEL]
GI50 (PC-6): 0.38 ng/mL (≈ 0.431 nM) | GI50 [11]: 0.62 ng/mL (≈ 0.703 nM)

Compound: N=C(N)NCCN1CCCCCCC1 [GUANETHIDINE]
half-life [1]: 36 h

Compound: COc1cc(/N=N/c2ccc([N+](=O)[O-])cc2)c(OC)cc1/N=N/c1ccc(N(C)CCCC(=O)NCCSC2CC(=O)N(CC3CCC(C(=O)NCCCNC(=O)c4ccc(C(=O)[O-])c(-c5c6ccc(=[N+](C)C)cc-6oc6cc(N(C)C)ccc56)c4)CC3)C2=O)cc1 (stereo not given)
K [3]: 3.06 10^-7/s

Compound: N=C(N)NCC1COC2(CCCCC2)O1 (stereo not given)
half-life [1]: 12 h

Compound: C[C@H]1[C@@H](O[C@H](CCC(=O)O)c2ccc(Cl)cc2)O[C@@H]2O[C@@]3(C)CC[C@H]4[C@H](C)CC[C@@H]1[C@@]24OO3
half-life [5]: 13 h

Compound: C[C@@H]1CC[C@H]2[C@@H](C)CO[C@@H]3O[C@@]4(C)CC[C@@H]1[C@]32OO4
half-life [5]: 165 h

Compound: COc1cc(/N=N/c2ccc([N+](=O)[O-])cc2)c(OC)cc1/N=N/c1ccc(N(C)CCCC(=O)NCCSC2CC(=O)N(CCC3OCC(C(=O)NCCCNC(=O)c4ccc(-c5c6ccc(=[N+](C)C)cc-6oc6cc(N(C)C)ccc56)c(C(=O)[O-])c4)O3)C2=O)cc1 (stereo not given)
K [3]: 4.61 10^-6/s

Compound: c1ccc2c(c1)COC1(CCCCC1)OC2
K [4]: 3.3 10^6No_unit

Other lines, results leading:

half-life [1]: 8 h
Compound: COC(=O)N[C@H](C(=O)N1CCC[C@H]1c1ncc(-c2ccc(-c3ccc(-c4cnc([C@@H]5CC6(CN5C(=O)[C@@H](NC(=O)OC)C(C)C)OCCO6)[nH]4)cc3)cc2)[nH]1)C(C)C

IC50 (Substance-P receptor): 0.1 nM
Compound: COc1cccc(-n2nnnc2C(F)(F)F)c1[C@H]1CO[C@@]2(C1)OCCN[C@H]2c1ccc(F)cc1

IC50 (Substance-P receptor): 1.1 nM
Compound: CN(C)Cc1[nH]nnc1CN1CCO[C@@]2(CC[C@@H](c3ccccc3C(F)(F)F)CO2)[C@@H]1c1ccc(F)cc1

bioavailability [9]: 63% | half-life [1]: 7 h
Compound: Cn1c(=O)c2c(ncn2CC2OCCO2)n(C)c1=O [DOXOFYLLINE]

Drug metabolism [10]: 0.057 L/mol/min
Compound: Nc1ncnc2c1ncn2[C@@H]1O[C@H](CO)C[C@@H]1O

IC50 (Substance-P receptor): 1.4 nM
Compound: CN(C)Cc1[nH]nnc1CN1CCO[C@@]2(CC[C@@H](c3ccccc3OC(F)(F)F)CO2)[C@@H]1c1ccc(F)cc1

IC50 (Substance-P receptor): 400 nM
Compound: Fc1ccc([C@@H]2NCCO[C@]23CC[C@H](c2ccccc2C(F)(F)F)CO3)cc1

bioavailability [9]: 80%
Compound: Nc1ccn([C@H]2CC[C@@H](CO)O2)c(=O)n1 [ZALCITABINE]

half-life [1]: 12 h
Compound: COC(=O)N[C@H](C(=O)N1CCC[C@H]1c1nc(-c2ccc(-c3ccc(-c4c[nH]c([C@@H]5CCCN5C(=O)[C@@H](NC(=O)OC)C(C)C)n4)cc3)cc2)c[nH]1)C(C)C

IC50 (Substance-P receptor): 28 nM
Compound: Fc1ccc([C@@H]2NCCO[C@@]23CC[C@@H](c2ccccc2C(F)(F)F)CO3)cc1

Drug metabolism [10]: 0.82 10^-3L/mol/min
Compound: Nc1ncnc2c1ncn2[C@@H]1O[C@H](CO)[C@@H](O)[C@H]1O [ADENOSINE]

Drug metabolism [10]: 9.6 10^-3L/mol/min
Compound: Nc1ncnc2c1ncn2[C@@H]1O[C@H](CO)[C@H](O)[C@@H]1O

bioavailability [7]: 64%
Compound: C[C@@H](c1c[nH]c2ccccc12)[C@H](C(=O)NC[C@H]1OC[C@H](N)CO1)N1CCN(CCC(c2ccccc2)c2ccccc2)C1=O
